The source of these data is US4044043A, “Derivatives of 9-oxo-13-trans-prostenoic acid esters” (American Cyanamid Company, priority 1975, dated 1977).

The experiment relates to gastric acid secretion. Briefly: Inhibition of basal Gastric Acid Secretion (Acute Gastric Fistula Rat). In kind it is in vivo, Female Sprague-Dawley rats. As to conditions: 10 mg./kg. intraduodenal. As to the method:
Inhibition of basal gastric acid secretion was determined in the acute gastric fistula rat as follows. Female Sprague-Dawley rats (Charles River Laboratories) weighing 140-160 grams are fasted in individual cages for 18-24 hours. The rats are then lightly anesthetized with ether and their front teeth extracted to avoid destruction of the plastic cannula. A midline incision is then made and the stomach and duodenum exposed. A flanged polyvinyl tube is inserted into the fundic portion of the stomach and secured with a purse string suture line using 4-0 Mersilene. The rat is then dosed by injection of the compound into the duodenum (1.0 ml. per 100 gram body weight). After dosing, the abdominal wall and skin are closed using metal wound clips. The rat is replaced in a cage containing a longitudinal slit to allow the polyvinyl tube to hang freely. An 8 ml. plastic collecting tube is attached to the flanged cannula and hangs freely below the cage. The first 30 minute sample is discarded designating this time as zero. The collecting tube is attached again and samples removed at the end of 60 and 120 minutes. Those samples are referred to as "A" and "B" in the table. The hourly samples are then transferred to a 15 ml. centrifuge tube and centrifuged for 5-10 minutes. Total and sediment volume are then recorded with the supernatant volume being used as volume of secretion. A 1 ml. or less aliquot is then removed and placed in a 50 ml. beaker containing 10 ml. of distilled water. This sample is then titrated using 0.01N NaOH to pH 7.0 using a Beckman zeromatic pH meter. Volume, titratable acidity (meq/L) and total acid output (μ eq/hour) are recorded. Percent inhibition is determined by comparison with the appropriate control. Groups of three rats were used. All compounds are administered in vehicle (0.5% methocel, 0.4% Tween 80, saline) at a constant volume of 1 ml./100 gram rat. Samples were sonicated with care to prevent overheating.

Setting [1] is: 2 h, B: 120 minute collection, read-out: % Inhibition Total Acid Output.
Where [2] appears, read: 2 h, B: 120 minute collection, read-out: % Inhibition Total Acidity.

Where two headings read alike, the source gives them in different places.

With `CCC/C=C/[C@H]1CCC(=O)[C@@H]1CCCCCCC(=O)O` (relative stereo) [9-oxo-18,19,20-trinor-13-trans-prostenoic acid], the inhibition in vivo at 10 mg/kg runs as follows: (1 h, A: 60 minute collection, read-out: % Inhibition Total Acid Output) 55%; (1 h, A: 60 minute collection, read-out: % Inhibition Total Acidity) 20%; under setting [1], 55%; under setting [2], 52%.

For the compound `CC(C)CC/C=C/[C@@H]1CCC(=O)[C@H]1CCCCCCC(=O)O` (relative stereo) [17-methyl-9-oxo-19,20-dinor-13-trans-prostenoic acid], the inhibition in vivo at 10 mg/kg reads like this: under setting [1], 53%; under setting [2], 51%.
